24 molecules from patent US20110044938A1 (NYCOMED GMBH, priority 2006, published 2011) can be followed below.

A value given as a limit tells only on which side of the number the result lay.

For experiment [1], the system named is subclones of RKO colon adenocarcinoma cells (RKOp27 or RKOp21) arrested by Ponasterone A. As to the kind of experiment: Alamar Blue cell viability assay, cell cycle specific mode of action: cells arrested by ectopic p27Kip1 induced by Ponasterone A versus proliferating cells. It is filed as cell-based. Conditions: Homo sapiens, RKO p27 induced (arrested) cells, 10 μM Ponasterone A, 72 hours, value = class bound given in Table A, read-out: −logIC50 RKO p27 induced (arrested) (converted). An outline of the steps:
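Viability of proliferating versus Ponasterone A (10 μM)-arrested RKOp27/RKOp21 cells after 72 h compound exposure at 37° C, in quadruplicate. Read-out is Alamar Blue fluorescence (544/590 nm) normalised to untreated cells = 100%; values as −log IC50.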
(In general: The colour change of resazurin is a common sign of viable cells or microbes.)

Experiment [2] deals with RKO (RKOp27) human colon adenocarcinoma cells. Put plainly: Alamar Blue cell viability assay, anti-proliferative/cytotoxic activity on proliferating RKO subclones. It is filed as cell-based. Conditions: RKOp27, 72 h, RKO p27 uninduced (proliferating) cells, value = class bound given in Table A, read-out: −logIC50 RKO p27 uninduced (proliferating) (converted). An outline of the steps: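 Alamar Blue fluorescence (ex 544, em 590 nm) after 72 h compound exposure at 37 °C, 5% CO2, normalised to untreated controls set at 100%. Cells were seeded at 5000 per well and dosed 24 h later with serial semi-logarithmic dilutions in 10% FCS DMEM, four replicates each. −log IC50 [mol/l] was derived from concentration-effect curves.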

On to `COC1CN(C(=O)OCC2CCc3c(sc(NC(=O)/C=C/c4cccnc4)c3C#N)C2)C1` (stereo not drawn) [Example 115, 3-Methoxy-azetidine-1-carboxylic acid 3-cyano-2-((E)-3-pyridin-3-yl-allanoylamino)-4,5,6,7-tetrahydro-benzo[b]thiophen-6-ylmethyl ester], for which the IC50 in experiment [1] is at least 100000 nM; in experiment [2] it was 501 to 2000 nM.
The like results for `N#Cc1c(NC(=O)/C=C/c2cccnc2)sc2c1CCC(OC(=O)NCc1cccnc1)C2` (stereo not drawn) [Example 35, Pyridin-3-ylmethyl-carbamic acid 3-cyano-2-((E)-3-pyridin-3-yl-allanoylamino)-4,5,6,7-tetrahydro-benzo[b]thiophen-6-yl ester] were, in that order, at least 100000 nM and 501 to 2000 nM.
On the same counts, the results for `Cc1nc(CNC(=O)OCC2CCc3c(sc(NC(=O)/C=C/c4cccnc4)c3C#N)C2)cs1` (stereo not drawn) [Example 66, (2-Methyl-thiazol-4-ylmethyl)-carbamic acid 3-cyano-2-((E)-3-pyridin-3-yl-allanoylamino)-4,5,6,7-tetrahydro-benzo[b]thiophen-6-ylmethyl ester] are at least 100000 nM and at most 501 nM.
The like results for `CC(CC(=O)Nc1sc2c(c1C#N)CCC(COC(=O)NCCc1cccnc1)C2)c1ccccc1` (stereo not drawn) [Example 307, (2-Pyridin-3-yl-ethyl)-carbamic acid 3-cyano-2-(3-phenyl-butanoylamino)-4,5,6,7-tetrahydro-benzo[b]thiophen-6-ylmethyl ester] were, in that order, at least 50100 nM and at most 501 nM.
For `COc1cccc(C(C)CC(=O)Nc2sc3c(c2C#N)CCC(OC(=O)NCc2cc(C)no2)C3)c1` (stereo not drawn) [Example 362, (3-Methyl-isoxazol-5-ylmethyl)-carbamic acid 3-cyano-2-[3-(3-methoxy-phenyl)-butanoyl-amino]-4,5,6,7-tetrahydro-benzo[b]thiophen-6-yl ester], the results for the IC50 in experiment [1] and in experiment [2] were at least 100000 nM and 501 to 2000 nM, respectively.
On the same counts, the results for `Cc1ccncc1/C=C/C(=O)Nc1sc2c(c1C#N)CCC(COC(=O)N1CC(O)C1)C2` (stereo not drawn) [Example 132, 3-Hydroxy-azetidine-1-carboxylic acid 3-cyano-2-[(E)-3-(4-methyl-pyridin-3-yl)-allanoylamino]-4,5,6,7-tetrahydro-benzo[b]thiophen-6-ylmethyl ester] are at least 100000 nM and 501 to 2000 nM.
On the same counts, the results for `Cc1nocc1CNC(=O)OC1CCc2c(sc(NC(=O)CC(C)c3cccnc3)c2C#N)C1` (stereo not drawn) [Example 355, (3-Methyl-isoxazol-4-ylmethyl)-carbamic acid 3-cyano-2-(3-pyridin-3-yl-butanoylamino)-4,5,6,7-tetrahydro-benzo[b] thiophen-6-yl ester] are at least 100000 nM and 501 to 2000 nM.
On the same counts, the results for `Cc1ccncc1/C=C/C(=O)Nc1sc2c(c1C#N)CCC(COC(=O)N1CCC[C@H]1CO)C2` (stereo partly drawn) [Example 135, 2-(S)-(Hydroxymethyl) pyrrolidine-1-carbamic acid 3-cyano-2-[(E)-3-(4-methyl-pyridin-3-yl)-allanoylamino]-4,5,6,7-tetrahydro-benzo[b]thiophen-6-ylmethyl ester] are at least 100000 nM and 501 to 2000 nM.
In the case of `CCNC(=O)OCC1CCc2c(sc(NC(=O)CC(C)c3cccnc3)c2C#N)C1` (stereo not drawn) [Example 278, Ethyl-carbamic acid 3-cyano-2-(3-pyridin-3-yl-butanoylamino)-4,5,6,7-tetrahydro-benzo[b] thiophen-6-ylmethyl ester], the IC50 in experiment [1] was at least 100000 nM; in experiment [2] it was 501 to 2000 nM.
The like results for `N#Cc1c(NC(=O)CCc2cccnc2)sc2c1CCC(OC(=O)NC1CC1)C2` (stereo not drawn) [Example 161, Cyclopropyl-carbamic acid 3-cyano-2-(3-pyridin-3-yl-propanoylamino)-4,5,6,7-tetrahydro-benzo[b]thiophen-6-yl ester] were, in that order, at least 50100 nM and 501 to 2000 nM.
The like results for `COc1cccc(CCC(=O)Nc2sc3c(c2C#N)CCC(COC(=O)NCc2ccno2)C3)c1` (stereo not drawn) [Example 243, Isoxazol-5-ylmethyl-carbamic acid 3-cyano-2-[3-(3-methoxy-phenyl)-propanoylamino]-4,5,6,7-tetrahydro-benzo[b]thiophen-6-ylmethyl ester] were, in that order, at least 100000 nM and 501 to 2000 nM.
On the same counts, the results for `Cc1oncc1CNC(=O)OC1CCc2c(sc(NC(=O)/C=C/c3cccnc3)c2C#N)C1` (stereo not drawn) [Example 58, (5-Methyl-isoxazol-4-ylmethyl)-carbamic acid 3-cyano-2-((E)-3-pyridin-3-yl-allanoylamino)-4,5,6,7-tetrahydro-benzo[b]thiophen-6-yl ester] are at least 100000 nM and 501 to 2000 nM.
In the case of `Cc1cc(CNC(=O)OCC2CCc3c(sc(NC(=O)CC(C)c4ccccc4)c3C#N)C2)no1` (stereo not drawn) [Example 314, (5-Methyl-isoxazol-3-ylmethyl)-carbamic acid 3-cyano-2-(3-phenyl-butanoylamino)-4,5,6,7-tetrahydro-benzo[b] thiophen-6-ylmethyl ester], the values for the IC50 in experiment [1] and in experiment [2] were at least 50100 nM and at most 501 nM, respectively.
With `CCNC(=O)OCC1CCc2c(sc(NC(=O)CCc3cccnc3)c2C#N)C1` (stereo not drawn) [Example 156, Ethyl-carbamic acid 3-cyano-2-(3-pyridin-3-yl-propanoylamino)-4,5,6,7-tetrahydro-benzo[b]thiophen-6-ylmethyl ester], the IC50 was at least 100000 nM in experiment [1] and 501 to 2000 nM in experiment [2].
On the same counts, the results for `CCOc1ccccc1CCC(=O)Nc1sc2c(c1C#N)CCC(COC(=O)NCc1ncc[nH]1)C2` (stereo not drawn) [Example 179, (1H-Imidazol-2-ylmethyl)-carbamic acid 3-cyano-2-[3-(2-ethoxy-phenyl)-propanoylamino]-4,5,6,7-tetrahydro-benzo[b]thiophen-6-ylmethyl ester] are at least 10000 nM and at most 501 nM.
The like results for `N#Cc1c(NC(=O)/C=C/c2cccnc2)sc2c1CCC(COC(=O)N1CCC(O)C1)C2` (stereo not drawn) [Example 75, 3-Hydroxy-pyrrolidine-1-carboxylic acid 3-cyano-2-((E)-3-pyridin-3-yl-allanoylamino)-4,5,6,7-tetrahydro-benzo[b]thiophen-6-ylmethyl ester] were, in that order, at least 100000 nM and at most 501 nM.
On the same counts, the results for `N#Cc1c(NC(=O)/C=C/c2cccnc2)sc2c1CCC(COC(=O)N1CCCO1)C2` (stereo not drawn) [Example 116, Isoxazolidine-2-carboxylic acid 3-cyano-2-((E)-3-pyridin-3-yl-allanoylamino)-4,5,6,7-tetrahydro-benzo[b]thiophen-6-ylmethyl ester] are at least 100000 nM and at most 501 nM.
For the molecule `Cc1cc(CNC(=O)OC[C@H]2CCc3c(sc(NC(=O)/C=C/c4cccnc4)c3C#N)C2)no1` [Example 47a, (S)-(5-Methyl-isoxazol-3-ylmethyl)-carbamic acid 3-cyano-2-((E)-3-pyridin-3-yl-allanoylamino)-4,5,6,7-tetrahydro-benzo[b]thiophen-6-ylmethyl ester], the IC50 is at least 100000 nM in experiment [1] and at most 501 nM in experiment [2].
The like results for `COc1cccc(C(C)CC(=O)Nc2sc3c(c2C#N)CCC(COC(=O)NCc2cn(C)nc2C)C3)c1` (stereo not drawn) [Example 339, (1,3-Dimethyl-1H-pyrazol-4-ylmethyl)-carbamic acid 3-cyano-2-[3-(3-methoxy-phenyl)-butanoylamino]-4,5,6,7-tetrahydro-benzo[b] thiophen-6-ylmethyl ester] were, in that order, at least 50100 nM and 501 to 2000 nM.
The like results for `CCOc1ccccc1CCC(=O)Nc1sc2c(c1C#N)CCC(COC(=O)NCc1nccn1C)C2` (stereo not drawn) [Example 183, (1-Methyl-1H-imidazol-2-ylmethyl)-carbamic acid 3-cyano-2-[3-(2-ethoxy-phenyl)-propanoylamino]-4,5,6,7-tetrahydro-benzo[b]thiophen-6-ylmethyl ester] were, in that order, at least 50100 nM and at most 501 nM.
Take `N#Cc1c(NC(=O)/C=C/c2cccnc2)sc2c1CCC(COC(=O)NCCc1cccnc1)C2` (stereo not drawn) [Example 19, (2-Pyridin-3-yl-ethyl)-carbamic acid 3-cyano-2-((E)-3-pyridin-3-yl-allanoylamino)-4,5,6,7-tetrahydro-benzo[b]thiophen-6-ylmethyl ester]: the IC50 in experiment [1] is at least 100000 nM; in experiment [2], 501 to 2000 nM.
On to `Cn1cccc1CNC(=O)OC1CCc2c(sc(NC(=O)/C=C/c3cccnc3)c2C#N)C1` (stereo not drawn) [Example 56, (1-Methyl-1H-pyrrol-2-ylmethyl)-carbamic acid 3-cyano-2-((E)-3-pyridin-3-yl-allanoylamino)-4,5,6,7-tetrahydro-benzo[b]thiophen-6-yl ester], for which the IC50 in experiment [1] was at least 100000 nM; in experiment [2], at most 501 nM.
The like results for `COc1cccc(CCC(=O)Nc2sc3c(c2C#N)CCC(OC(=O)NCc2cnn(C)c2)C3)c1` (stereo not drawn) [Example 223, (1-Methyl-1H-pyrazol-4-ylmethyl)-carbamic acid 3-cyano-2-[3-(3-methoxy-phenyl)-propanoylamino]-4,5,6,7-tetrahydro-benzo[b]thiophen-6-yl ester] were, in that order, at least 100000 nM and at most 501 nM.
The like results for `CC(CC(=O)Nc1sc2c(c1C#N)CCC(OC(=O)OCc1cncs1)C2)c1cccnc1` (stereo not drawn) [Example 356, Carbonic acid 3-cyano-2-(3-pyridin-3-yl-butanoylamino)-4,5,6,7-tetrahydro-benzo[b] thiophen-6-yl ester thiazol-5-ylmethyl ester] were, in that order, at least 100000 nM and 501 to 2000 nM.
